Measurements published in patent US20250325531A1, “TREATMENT OF SYSTOLIC DYSFUNCTION” (MyoKardia, Inc., priority 2024, published 2025).
“And” between values parts separate entries of the source, which are not always exact repeats. Identical values can stand only once.

What was measured:
[1] = Pharmacokinetics of single ascending doses (SAD Cohorts 1 and 2) in patients with stable HFrEF; assay type: in vivo, human
Source text: This example describes a study to establish preliminary safety and tolerability of single- and multiple-ascending oral doses of Compound I in ambulatory patients with stable heart failure with reduced ejection fraction (HFrEF). Key eligibility criteria included stable HFrEF of ischemic or nonischemic origin, treated with guideline-directed medical therapy (EF initial requirement during Screening was 20 to 45%, and was later changed by amendment to 15 to 35%). Subjects with active ischemia or severe or valvular heart disease were excluded. The study also aimed (1) to establish preliminary human PK of Compound I after single- and multiple-ascending oral doses of Compound I in patients with HFrEF; (2) to determine changes in left ventricular stroke volume (LVSV) derived from left ventricular outflow tract-velocity time integral (LVOT-VTI), left ventricular ejection fraction (LVEF) and change in left ventricular fractional shortening (LVFS) with Compound I after ascending single and multiple doses compared with Baseline and placebo as measured by transthoracic echocardiography (TTE); (3) to determine changes in systolic ejection time (SET) with Compound I after ascending single and multiple doses compared with Baseline and placebo as measured by TTE; and (4) to determine changes in pharmacodynamics (PD) dose/concentration effects (change in LVSV (derived from LVOT-VTI), LVEF, LVFS) with Compound I compared with Baseline and placebo after ascending single and multiple doses, as measured by TTE.
Part 1 was a randomized, crossover, DB, placebo-controlled, two-cohort, sequential ascending (oral) single-dose study in ambulatory patients with heart failure. All patients received placebo and 2 or 3 active doses of Compound I. Each patient underwent sequential, single-dose treatment events separated by no fewer than 5 days and no more than 14 days. Patients in Cohort 1 may also return for a fourth dosing period (open label) after the SRC reviews available data and recommends the dose. Patients enrolled prior to the implementation of Amendment 1 may be offered the opportunity to return for the open-label period. Patients in Cohort 2 participated in 2 to 4 dosing periods, based on SRC decision. Patients were randomized to one of the different dosing sequences outlined in FIG. 5A. Multiple patients could be dosed at the same time or during the same week depending on administrative issues, i.e., capacity and scheduling.
For each dosing period, patients were admitted to the clinical site on Day-1. Patients were assessed for absence of exclusion criteria (e.g., new lab abnormalities and/or conditions that indicate the patient is clinically unstable). They received Compound I or placebo in the morning of Day 1 followed by serial PK and PD assessments, as well as serial safety assessments. Patients were discharged on Day 3 (i.e., ˜48 hours following Day 1 dosing). An additional outpatient plasma PK sample was taken on the morning of Day 4 at 72 hours postdose.
(§1) Study medication consisted of Compound I 5 mg tablets, 25 mg tablets, 100 mg tablets, or matching placebo tablets. In Part 1 (SAD), Compound I or placebo was administered after an overnight fast (at least 6 hours), while in Part 2 (MAD), Compound I was administered after a 2 hour fast (Cohort A) or with food (Cohorts B, C, and D). The dose was ingested with a minimum of 240 mL of water, but more water was ingested as needed. The entire dose was administered over a period of up to 15 minutes. The time of dose used to determine future assessments was the time the last tablet was taken. In the cohorts for Part 2 (MAD), a BID regimen was used.
In Part 1 (SAD), patients fasted overnight (approximately 6 hours) through 4 hours postdose. With the exception of the water consumed with the dose, water could be ingested until approximately 1 hour prior to dosing and approximately 1 hour after dosing. If doses were split, subjects fasted 6 hours prior to the first half-dose. […]

[2] = Pharmacokinetics of multiple ascending doses (MAD Cohorts A-D) in patients with stable HFrEF; assay type: in vivo, human; settings: for Accumulation Index: estimated based λz and Tau
Source text: This was a randomized, parallel-group, DB, placebo-controlled, adaptive design, sequential ascending (oral) multiple-dose study in stable patients with heart failure. Four MAD Cohorts (A, B, C, D) were enrolled (FIG. 5B). An SRC reviewed results from each cohort and determined the dose and confirmed initial sample size for the subsequent cohort. Additionally, the first 3 patients in each cohort had LVEF ≥25%; the SRC reviewed preliminary safety data from these patients and decided whether to open cohort enrollment to patients with LVEF <25%.
After Screening and qualification, patients were confined to a clinical testing facility from Day 1 (Check-in) to Day 11. Each patient initially received placebo BID for 2 days (Days 1 and 2) in single-blinded manner (“run-in” during acclimatization to confinement in the Clinical Testing Unit) prior to receiving the randomized DB study drug treatment on Day 3. All patients then received either placebo or active Compound I for 7 days (Days 3 through 9), with a follow-up period with patients discharged from the unit on Day 11. A final follow-up clinic visit was conducted on Day 16. More than one patient could be dosed in a cohort at the same time or during the same week depending on administrative issues, i.e., capacity and scheduling.
Patients were dosed twice daily (every 12 hours). Doses could occur ±2 hours from scheduled dosing times as long as doses were separated by at least 10 hours and by no more than 14 hours. The exception to the twice daily dosing was on Day 9 (last dose of randomized DB study drug treatment). On Day 9, a single morning dose was administered.
During the study, multiple evaluations were performed that included: serial TTE assessments (11-14 TTEs per patient on Days 1, 2, 3, 4, 7, 9, 10 and 11); PK sampling (PK sample collected concomitantly with every post-randomization echocardiogram); ECGs (on Days 2, 3, 4, 7, 9, 10, 11 and 16); troponin (collected concomitantly with every post-randomization ECG); and safety laboratory assessments. Confined patients underwent continuous telemetry. Holter monitoring was performed in all patients at baseline (Days 1-2) and at the end of double-blind treatment (Days 7-9). Vital signs were collected daily.
as §1
In Part 2 (MAD), Cohort A patients fasted for 2 hours before and 2 hours after dosing. For example, if morning dosing occurred at 8 AM, patients could have a snack at 6 AM and a full breakfast at 10 AM. If afternoon dosing occurred at 8 PM, patients could have dinner at 6 PM and a snack at 10 PM. […] Cohort B, C, and D patients ingested food with each dose.
A total of 40 subjects across 4 cohorts received 7 days of treatment with placebo or Compound I at doses of 50 mg (with food), 75 mg (1 cohort with food, 1 cohort with […]), or 100 mg (with food), BID (see FIG. 5B and Table 14).

[3] = MAD Cohort A (75 mg BID, 4 h fasting), individual subjects
[4] = MAD Cohort B (50 mg BID, with food), Mean
[5] = MAD Cohort C (75 mg BID, with food), individual subjects

Cn1cc(S(=O)(=O)[C@@](C)(F)C2CCN(C(=O)Nc3ccon3)CC2)c(C(F)F)n1 [Compound I, (R)-4-(1-((3-(difluoromethyl)-1-methyl-1H-pyrazol-4-yl)sulfonyl)-1-fluoroethyl)-N-(isoxazol-3-yl) piperidine-1-carboxamide]
mean (SD) Cmax ([1]; 350 mg single dose, fasted): 2760 (856) ng/mL | AUC0-∞ ([1]; SAD Cohort 1, 175 mg (n = 8)): 53,800 hr × ng/mL | AUC0-∞ ([1]; SAD Cohort 1, 350 mg (n = 8)): 103,000 hr × ng/mL | Cmax ([1]; SAD Cohort 1, 350 mg (n = 8)): 2760 ng/mL | AUC0-∞ ([1]; SAD Cohort 1, 525 mg (n = 2)): 127,000 hr × ng/mL | AUC0-24 ([1]; SAD Cohort 1, 4th dose 350 mg (n = 1)): 70,100 hr × ng/mL | Steady-state (Day 9) post-dose maximum concentration ([2]; Cohort A + C (n = 14), 75 mg BID): 3862 (27.7%) ng/mL | Steady-state (Day 9) post-dose maximum concentration ([2]; Cohort B (n = 8), 50 mg BID): 2735 (17.5%) ng/mL | Steady-state (Day 9) post-dose maximum concentration ([2]; Cohort D (n = 6), 100 mg BID): 5560 (22.8%) ng/mL | Accumulation Index ([2]; MAD Cohort A (75 mg BID, 4 h fasting), Mean): 3.11 | AUCtau, Day 1 [2, 3]: 10610 ng·h/mL | Accumulation Index [2, 3]: 3.82 and 3.89 and 2.79* and 2.21 and 3.00 and 2.61 | Cmax, SS [2, 4]: 2771 ng/mL | Accumulation Index [2, 4]: 3.55 | Accumulation Index ([2]; MAD Cohort B (50 mg BID, with food), individual subjects): 3.63 and 5.03 and 4.46 and 2.93 and 3.51 and 2.42 and 3.20 (2×) and 4.23* | Accumulation Index ([2]; MAD Cohort C (75 mg BID, with food), Mean): 3.18 | AUCtau, Day 1 [2, 5]: 10560 ng·h/mL | Accumulation Index [2, 5]: 2.18 and 2.39 and 2.99 and 3.31 and 5.51 and 2.43 and 2.20 and 4.17 and 3.42 | Accumulation Index ([2]; MAD Cohort D (100 mg BID, with food), Mean): 3.30 | Accumulation Index ([2]; MAD Cohort D (100 mg BID, with food), individual subjects): 3.46 and 3.77 and 3.06 and 3.31 and 2.61 and 3.62
